According to patent publication US7267949B2, “Composition comprising methylphenidate and another drug” (Celltech Pharma Europe Limited, priority 1995, dated 2007):

Experiments:
P450 Isozyme 2C19 = P450 Isozyme 2C19 (Homo sapiens, UniProt P33261); assay: Mephenytoin hydroxylase activity in human microsome preparations; details: test substance at 100 μM, human microsomes
P450 Isozyme 2B = assay: Lauric acid 11-hydroxylase activity in human microsome preparations; details: test substance at 100 μM, human microsomes
P450 Isozyme 2D6 = P450 Isozyme 2D6 (Homo sapiens, UniProt P10635); assay: Bufuralol hydroxylase activity in human microsome preparations; details: test substance at 100 μM, human microsomes
Sequence of P450 Isozyme 2D6 (P10635 whole entry): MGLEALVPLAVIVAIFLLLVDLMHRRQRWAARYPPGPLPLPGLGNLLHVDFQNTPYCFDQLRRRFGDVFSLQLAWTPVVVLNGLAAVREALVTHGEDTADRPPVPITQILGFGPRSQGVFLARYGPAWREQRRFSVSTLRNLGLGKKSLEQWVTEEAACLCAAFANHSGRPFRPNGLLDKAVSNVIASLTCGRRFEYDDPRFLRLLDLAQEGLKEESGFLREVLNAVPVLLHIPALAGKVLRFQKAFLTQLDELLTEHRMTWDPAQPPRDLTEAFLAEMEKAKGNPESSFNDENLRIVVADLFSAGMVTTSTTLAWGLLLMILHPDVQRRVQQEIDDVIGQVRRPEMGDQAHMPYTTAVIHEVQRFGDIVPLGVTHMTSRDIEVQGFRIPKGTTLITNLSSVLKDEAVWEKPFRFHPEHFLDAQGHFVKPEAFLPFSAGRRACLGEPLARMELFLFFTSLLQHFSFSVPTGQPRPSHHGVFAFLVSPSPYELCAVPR

mouse liver = assay: Toxicity in the mouse liver; type: in vivo; details: compared with racemic methylphenidate
Description: The invention is thus of particular utility in that proportion of the population in which the relevant enzymes have reduced efficiency, or that are receiving the cross-reacting drugs, e.g SSRIs, in therapy of, say, anxiety or depression.

rats = details: 10 mg/kg, given 10 minutes following methylphenidate, within 15 to 25 minutes; cited from earlier work
[1] = biological target: CYP2D6 (P450 Isozyme 2D6) (Homo sapiens, UniProt P10635); assay: Bufuralol hydroxylase activity in human microsome preparations; details: human
Sequence of CYP2D6 (P450 Isozyme 2D6) (P10635 whole entry): as above

[2] = biological target: CYP2C19 (P450 Isozyme 2C19) (Homo sapiens, UniProt P33261); assay: Mephenytoin hydroxylase activity in human microsome preparations; details: human, human microsome preparations, probe mephenytoin
Sequence of CYP2C19 (P450 Isozyme 2C19) (P33261 whole entry): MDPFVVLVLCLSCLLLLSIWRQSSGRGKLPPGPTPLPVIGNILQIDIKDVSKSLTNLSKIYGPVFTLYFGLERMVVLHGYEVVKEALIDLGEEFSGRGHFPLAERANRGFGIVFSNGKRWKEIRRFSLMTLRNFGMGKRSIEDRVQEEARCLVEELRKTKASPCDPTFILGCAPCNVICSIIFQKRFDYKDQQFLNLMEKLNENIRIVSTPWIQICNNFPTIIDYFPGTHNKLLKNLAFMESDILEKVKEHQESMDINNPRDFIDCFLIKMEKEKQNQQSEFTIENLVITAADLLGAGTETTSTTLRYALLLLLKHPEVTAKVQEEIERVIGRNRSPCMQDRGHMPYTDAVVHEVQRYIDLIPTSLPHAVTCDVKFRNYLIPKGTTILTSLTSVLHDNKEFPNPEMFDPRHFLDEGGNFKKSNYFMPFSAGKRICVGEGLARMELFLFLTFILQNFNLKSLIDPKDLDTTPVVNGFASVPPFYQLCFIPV

CYP2B (P450 Isozyme 2B) = assay: Lauric acid 11-hydroxylase activity in human microsome preparations; details: human, human microsome preparations, probe lauric acid
[3] = biological target: CYP2C9 (P450 Isozyme 2C9) (Homo sapiens, UniProt P11712); assay: Tolbutamide hydroxylase activity in human microsome preparations; details: microsomes
Sequence of CYP2C9 (P450 Isozyme 2C9) (P11712 whole entry): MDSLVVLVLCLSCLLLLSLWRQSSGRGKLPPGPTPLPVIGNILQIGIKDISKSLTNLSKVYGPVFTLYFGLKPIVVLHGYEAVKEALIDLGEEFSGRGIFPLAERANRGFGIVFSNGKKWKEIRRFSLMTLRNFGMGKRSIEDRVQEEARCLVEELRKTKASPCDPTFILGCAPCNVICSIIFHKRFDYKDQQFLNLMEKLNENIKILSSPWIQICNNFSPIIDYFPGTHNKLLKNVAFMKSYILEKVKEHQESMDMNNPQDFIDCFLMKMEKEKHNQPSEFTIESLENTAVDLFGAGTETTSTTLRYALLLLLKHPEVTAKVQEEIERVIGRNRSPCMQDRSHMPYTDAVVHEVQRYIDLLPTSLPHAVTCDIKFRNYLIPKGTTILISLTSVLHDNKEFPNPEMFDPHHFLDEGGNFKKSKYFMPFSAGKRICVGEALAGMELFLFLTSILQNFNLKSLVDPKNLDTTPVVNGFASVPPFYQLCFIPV

Sequence of P450 Isozyme 2C19 (P33261 whole entry): as the sequence (P33261 whole entry) above

COC(=O)[C@@H](c1ccccc1)[C@@H]1CCCCN1 [ltmp]
% Inhibition of Enzyme Activity (Mephenytoin hydroxylase, 2C19) (P450 Isozyme 2C19): 33% | % Inhibition of Enzyme Activity (Lauric acid 11-hydroxylase, 2B) (P450 Isozyme 2B): <20% | % Inhibition of Enzyme Activity (Bufuralol hydroxylase, 2D6) (P450 Isozyme 2D6): 41%

COC(=O)[C@H](c1ccccc1)[C@H]1CCCCN1 [dtmp, d-threo-methylphenidate]
% Inhibition of Enzyme Activity (Mephenytoin hydroxylase, 2C19) (P450 Isozyme 2C19): 31% | % Inhibition of Enzyme Activity (Lauric acid 11-hydroxylase, 2B) (P450 Isozyme 2B): <20% | % Inhibition of Enzyme Activity (Bufuralol hydroxylase, 2D6) (P450 Isozyme 2D6): 64% | toxicity in the mouse liver (mouse liver): less toxicity in the mouse liver than racemic methylphenidate

NCC(CC(=O)O)c1ccc(Cl)cc1 (stereo not shown) [Baclofen]
block of methylphenidate-enhanced activity and stereotypics (rats): uniform block

C=C[C@H]1C[N@@]2CC[C@H]1C[C@@H]2[C@@H](O)c1ccnc2ccc(OC)cc12 [Quinidine]
inhibition at 10 µM ([1]; human microsome preparations, probe bufuralol): > 90%

COC(=O)C(c1ccccc1)C1CCCCN1 (racemic) [Racemic Methylphenidate, methylphenidate]
inhibition at 100 µM [2]: 44% | inhibition at 100 µM (CYP2B (P450 Isozyme 2B)): < 15% | inhibition at 100 µM ([1]; microsomes): 65% | inhibition at 100 µM [3]: 19%
